Experimental data reported in patent EP4786487A1, “PEPTIDE” (Peptidream Inc, priority 2023, dated 2025).
Like-named read-outs stand apart in the source and are kept apart here. Starred links: 1 amine or outer side, 2 acyl side, 3 side chain; linkers in the order of their positions; H or OH if unused. Positions of bridges follow the written chain, without caps; N, C: chain ends. Non-standard residues stand in square brackets, D forms with d. Residues, ends and D or L forms follow the SMILES beside them. *: point of attachment. X4 = CN(C)C(=O)Cn1cc(-c2ccc(C[C@H](N[*:1])C(=O)[*:2])cc2)cn1; Phe(4-(2-MeO-Ph)) = COc1ccccc1-c1ccc(C[C@H](N)C(=O)O)cc1; X10 = O=C([C@H](Cc1cn(Cc2ccccc2)c2ccccc12)N[*:1])[*:2]; Phe(3-OCH2COOH) = N[C@@H](Cc1cccc(OCC(=O)O)c1)C(=O)O; Trp(1-Ph) = N[C@@H](Cc1cn(-c2ccccc2)c2ccccc12)C(=O)O; NMePhe(3-Ph) = CN[C@@H](Cc1cccc(-c2ccccc2)c1)C(=O)O; X11 = O=C([C@H](Cc1ccc(-c2ccccc2Cl)cc1)N[*:1])[*:2]; Trp(6-OH) = N[C@@H](Cc1c[nH]c2cc(O)ccc12)C(=O)O; Phe(4-COOH) = N[C@@H](Cc1ccc(C(=O)O)cc1)C(=O)O; Piperazinyl(4-CH2COOH) = O=C(O)CN1CCN(*)CC1; Piperidinyl(4-CH2COOH) = O=C(O)CC1CCN(*)CC1; Gly(N(CH2)3COOH) = O=C(O)CCCNCC(=O)O; X1 = CCCCCCC[C@H](N[*:1])C(=O)[*:2]; NMeF = CN[C@@H](Cc1ccccc1)C(=O)O; NMeE = CN[C@@H](CCC(=O)O)C(=O)O; X12 = O=C(O)CCC1CCN(*)CC1; NMeA = CN[C@@H](C)C(=O)O; Sar = CNCC(=O)O

Experiments:
[1] = target: T1, GDF-11 (Homo sapiens, UniProt O95390); experiment: HepG2 reporter gene assay, Evaluation Procedure (2): 2-concentrations assay, GDF-11 inhibition; type: cell-based
T1 construct: purchased R&D systems 1958-GD-G8/CF
T1 sequence (O95390 299-407): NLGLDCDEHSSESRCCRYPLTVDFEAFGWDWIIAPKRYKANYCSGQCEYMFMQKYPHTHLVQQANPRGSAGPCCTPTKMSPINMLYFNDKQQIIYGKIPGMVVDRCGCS
In short: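 HepG2 cells carrying the transfected pGL3(CAGA)12-luc reporter, a pGL3 vector with luciferase placed downstream of 12 CAGA repeats, were stimulated with GDF-11 at a final 10 ng/mL together with test peptide. Blank wells received no GDF-11 and no peptide. Plates were incubated 20 to 24 hours at 37°C with 5% CO2. Luminescence from One-Glo substrate was read to calculate percent inhibition.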

[2] = target: T2, Myostatin (Homo sapiens, UniProt O14793); experiment: HepG2 reporter gene assay, Evaluation Procedure (2): 2-concentrations assay, myostatin inhibition; type: cell-based
T2 construct: active myostatin (also called mature myostatin) is a homodimer consisting of two C-terminal growth factor domains; purchased R&D systems 788-G8/CF
T2 sequence (O14793 267-375): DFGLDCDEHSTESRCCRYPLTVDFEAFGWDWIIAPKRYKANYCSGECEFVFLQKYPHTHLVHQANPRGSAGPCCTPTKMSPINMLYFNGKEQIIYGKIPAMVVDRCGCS
In short: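 Myostatin inhibition was measured in a luciferase reporter assay using HepG2 cells transfected with a pGL3 vector containing 12 CAGA repeats upstream of luciferase. After 20 to 24 hours with 10 ng/mL myostatin, cells received One-Glo:PBS (1:1) at 100 µL/well, were shaken for 5 min, and 20 µL/well was moved to 384-well plates and read on an Envision 2104.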

[3] = HepG2, first GDF-11 column of Table 7-3/7-4, GDF-11 10 ng/mL, peptide at the lower of the 2 concentrations, read-out: inhibition rate (GDF-11 inhibition assay)
[4] = HepG2, second GDF-11 column of Table 7-3/7-4, GDF-11 10 ng/mL, peptide at the higher of the 2 concentrations, read-out: inhibition rate (GDF-11 inhibition assay)
[5] = Table 7-3/7-4, myostatin 10 ng/mL, peptide at the higher of the 2 concentrations, HepG2, read-out: inhibition rate (myostatin inhibition assay)
[6] = Table 7-3/7-4, myostatin 10 ng/mL, peptide at the lower of the 2 concentrations, HepG2, read-out: inhibition rate (myostatin inhibition assay)
[7] = HepG2, read-out: inhibition rate (GDF-11 inhibition assay), Table 7-3/7-4, GDF-11 10 ng/mL, peptide at the higher of the 2 concentrations
[8] = HepG2, read-out: inhibition rate (GDF-11 inhibition assay), Table 7-3/7-4, GDF-11 10 ng/mL, peptide at the lower of the 2 concentrations
[9] = HepG2, read-out: inhibition rate (myostatin inhibition assay)

SMILES	inhibition [1, 3] [%]	inhibition [1, 4] [%]	inhibition at 0.1 µM [2, 5] [%]	inhibition at 0.03 µM [2, 6] [%]	inhibition [1, 7] [%]	inhibition [1, 8] [%]	inhibition at 0.03 µM [2, 9] [%]	inhibition at 0.1 µM [2, 9] [%]
CCCCCCC[C@@H]1NC(=O)[C@H](Cc2ccccc2)N(C)C(=O)[C@H](CCCNC(=N)N)NC(=O)[C@H](Cc2ccc(C(=O)O)cc2)NC(=O)[C@H](Cc2cccc(OCC(=O)O)c2)NC(=O)CN(C)C(=O)[C@H]([C@@H](C)CC)NC(=O)[C@H](Cc2ccccc2)N(C)C(=O)[C@H](Cc2ccc(O)cc2)NC(=O)[C@H](Cc2c[nH]c3ccccc23)NC(=O)[C@H](C)NC(=O)[C@H](C)NC(=O)CSC[C@H](C(=O)N2CCN(CC(=O)O)CC2)NC(=O)[C@H](Cc2ccccc2)N(C)C(=O)[C@H](CCC(=O)O)N(C)C1=O [Myostatin_99_v311] ({CH2CO}-AAWY[NMeF]I[Sar][Phe(3-OCH2COOH)][Phe(4-COOH)]R[NMeF][X1][NMeE][NMeF][dC]-{Piperazinyl(4-CH2COOH)}; thioether N-15)	0	5	100	99				
CCCCCCC[C@@H]1NC(=O)[C@H](Cc2ccccc2)N(C)C(=O)[C@H](CCCNC(=N)N)NC(=O)[C@H](Cc2ccc(C(=O)O)cc2)NC(=O)[C@H](Cc2cccc(OCC(=O)O)c2)NC(=O)CN(C)C(=O)[C@H]([C@@H](C)CC)NC(=O)[C@H](Cc2ccccc2)N(C)C(=O)[C@H](Cc2ccc(O)cc2)NC(=O)[C@H](Cc2cn(Cc3ccccc3)c3ccccc23)NC(=O)[C@H](C)NC(=O)[C@H](C)NC(=O)CSC[C@H](C(=O)N2CCN(CC(=O)O)CC2)NC(=O)[C@H](Cc2ccccc2)N(C)C(=O)[C@H](C)N(C)C1=O [Myostatin_99_v312] ({CH2CO}-AA[X10]Y[NMeF]I[Sar][Phe(3-OCH2COOH)][Phe(4-COOH)]R[NMeF][X1][NMeA][NMeF][dC]-{Piperazinyl(4-CH2COOH)}; thioether N-15)	0	6	100	98				
CCCCCCC[C@@H]1NC(=O)[C@H](Cc2ccccc2)N(C)C(=O)[C@H](CCCNC(=N)N)NC(=O)[C@H](Cc2ccc(C(=O)O)cc2)NC(=O)[C@H](Cc2cccc(OCC(=O)O)c2)NC(=O)CN(C)C(=O)[C@H]([C@@H](C)CC)NC(=O)[C@H](Cc2ccccc2)N(C)C(=O)[C@H](Cc2ccc(O)cc2)NC(=O)[C@H](Cc2c[nH]c3ccccc23)NC(=O)[C@H](C)NC(=O)[C@H](C)NC(=O)CSC[C@H](C(=O)N2CCC(CC(=O)O)CC2)NC(=O)[C@H](Cc2ccccc2)N(C)C(=O)[C@H](C)N(C)C1=O [Myostatin_99_v313] ({CH2CO}-AAWY[NMeF]I[Sar][Phe(3-OCH2COOH)][Phe(4-COOH)]R[NMeF][X1][NMeA][NMeF][dC]-{Piperidinyl(4-CH2COOH)}; thioether N-15)	12	40	100	100				
CCCCCCC[C@@H]1NC(=O)[C@H](Cc2ccccc2)N(C)C(=O)[C@H](CCCNC(=N)N)NC(=O)[C@H](Cc2ccc(C(=O)O)cc2)NC(=O)[C@H](Cc2cccc(OCC(=O)O)c2)NC(=O)CN(C)C(=O)[C@H]([C@@H](C)CC)NC(=O)[C@H](Cc2ccccc2)N(C)C(=O)[C@H](Cc2ccc(O)cc2)NC(=O)[C@H](Cc2c[nH]c3ccccc23)NC(=O)[C@H](C)NC(=O)[C@H](C)NC(=O)CSC[C@H](C(=O)N2CCC(CCC(=O)O)CC2)NC(=O)[C@H](Cc2ccccc2)N(C)C(=O)[C@H](C)N(C)C1=O [Myostatin_99_v314] ({CH2CO}-AAWY[NMeF]I[Sar][Phe(3-OCH2COOH)][Phe(4-COOH)]R[NMeF][X1][NMeA][NMeF][dC]-X12; thioether N-15)	2	51	100	100				
CCCCCCC[C@@H]1NC(=O)[C@H](Cc2ccccc2)N(C)C(=O)[C@H](CCCNC(=N)N)NC(=O)[C@H](Cc2ccc(C(=O)O)cc2)NC(=O)[C@H](Cc2cccc(OCC(=O)O)c2)NC(=O)[C@H](C)N(C)C(=O)[C@H]([C@@H](C)CC)NC(=O)[C@H](Cc2ccccc2)N(C)C(=O)[C@H](Cc2ccc(O)cc2)NC(=O)[C@H](Cc2c[nH]c3cc(O)ccc23)NC(=O)[C@H](C)NC(=O)CN(CCCC(=O)O)C(=O)CSC[C@H](C(=O)O)NC(=O)[C@H](Cc2ccccc2)N(C)C(=O)[C@H](C)N(C)C1=O [Myostatin_99_v318] ({CH2CO}-[Gly(N(CH2)3COOH)]A[Trp(6-OH)]Y[NMeF]I[NMeA][Phe(3-OCH2COOH)][Phe(4-COOH)]R[NMeF][X1][NMeA][NMeF][dC]-OH; thioether N-15)	0	19	100	100				
CCCCCCC[C@@H]1NC(=O)[C@H](Cc2ccccc2)N(C)C(=O)[C@H](CCCNC(=N)N)NC(=O)[C@H](Cc2ccc(C(=O)O)cc2)NC(=O)[C@H](Cc2ccc(-c3ccccc3Cl)cc2)NC(=O)[C@H](C)N(C)C(=O)[C@H]([C@@H](C)CC)NC(=O)[C@H](Cc2ccccc2)N(C)C(=O)[C@H](Cc2ccc(O)cc2)NC(=O)[C@H](Cc2ccc(-c3cnn(CC(=O)N(C)C)c3)cc2)NC(=O)[C@H](C)NC(=O)CN(CCCC(=O)O)C(=O)CSC[C@H](C(=O)O)NC(=O)[C@H](Cc2ccccc2)N(C)C(=O)[C@H](CCC(=O)O)N(C)C1=O [Myostatin_99_v321] ({CH2CO}-[Gly(N(CH2)3COOH)]A[X4]Y[NMeF]I[NMeA][X11][Phe(4-COOH)]R[NMeF][X1][NMeE][NMeF][dC]-OH; thioether N-15)					0	0	58	91
CCCCCCC[C@@H]1NC(=O)[C@H](Cc2ccccc2)N(C)C(=O)[C@H](CCCNC(=N)N)NC(=O)[C@H](Cc2ccc(C(=O)O)cc2)NC(=O)[C@H](Cc2ccc(-c3ccccc3OC)cc2)NC(=O)[C@H](C)N(C)C(=O)[C@H]([C@@H](C)CC)NC(=O)[C@H](Cc2ccccc2)N(C)C(=O)[C@H](Cc2ccc(O)cc2)NC(=O)[C@H](Cc2c[nH]c3cc(O)ccc23)NC(=O)[C@H](C)NC(=O)CN(CCCC(=O)O)C(=O)CSC[C@H](C(=O)O)NC(=O)[C@H](Cc2ccccc2)N(C)C(=O)[C@H](CCC(=O)O)N(C)C1=O [Myostatin_99_v323] ({CH2CO}-[Gly(N(CH2)3COOH)]A[Trp(6-OH)]Y[NMeF]I[NMeA][Phe(4-(2-MeO-Ph))][Phe(4-COOH)]R[NMeF][X1][NMeE][NMeF][dC]-OH; thioether N-15)					0	0	97	99
CCCCCCC[C@@H]1NC(=O)[C@H](Cc2ccccc2)N(C)C(=O)[C@H](CCCNC(=N)N)NC(=O)[C@H](Cc2ccc(C(=O)O)cc2)NC(=O)[C@H](Cc2ccc(-c3ccccc3Cl)cc2)NC(=O)CN(C)C(=O)[C@H]([C@@H](C)CC)NC(=O)[C@H](Cc2ccccc2)N(C)C(=O)[C@H](Cc2ccc(O)cc2)NC(=O)[C@H](Cc2c[nH]c3cc(O)ccc23)NC(=O)[C@H](C)NC(=O)[C@H](C)NC(=O)CSC[C@H](C(=O)N2CCN(CC(=O)O)CC2)NC(=O)[C@H](Cc2ccccc2)N(C)C(=O)[C@H](CCC(=O)O)N(C)C1=O [Myostatin_99_v325] ({CH2CO}-AA[Trp(6-OH)]Y[NMeF]I[Sar][X11][Phe(4-COOH)]R[NMeF][X1][NMeE][NMeF][dC]-{Piperazinyl(4-CH2COOH)}; thioether N-15)	49	86	100	100				
CCCCCCC[C@@H]1NC(=O)[C@H](Cc2ccccc2)N(C)C(=O)[C@H](CCCNC(=N)N)NC(=O)[C@H](Cc2ccc(C(=O)O)cc2)NC(=O)[C@H](Cc2cccc(OCC(=O)O)c2)NC(=O)[C@H](C)N(C)C(=O)[C@H]([C@@H](C)CC)NC(=O)[C@H](Cc2ccccc2)N(C)C(=O)[C@H](Cc2ccc(O)cc2)NC(=O)[C@H](Cc2cn(-c3ccccc3)c3ccccc23)NC(=O)[C@H](C)NC(=O)[C@H](C)NC(=O)CSC[C@H](C(=O)N2CCN(CC(=O)O)CC2)NC(=O)[C@H](Cc2cccc(-c3ccccc3)c2)N(C)C(=O)[C@H](CCC(=O)O)N(C)C1=O [Myostatin_99_v330] ({CH2CO}-AA[Trp(1-Ph)]Y[NMeF]I[NMeA][Phe(3-OCH2COOH)][Phe(4-COOH)]R[NMeF][X1][NMeE][NMePhe(3-Ph)][dC]-{Piperazinyl(4-CH2COOH)}; thioether N-15)	0	0	100	100				
